Results taken from patent US10662445B2, “Process for the production of bio-butanol by fermentation of glycosidic waste matter” (priority 2018, dated 2020).

Assays:
[1] = Organic-solvent extraction of microbial inhibitors from an agro-waste hydrolysate mimic; format: physicochemical; conditions: for HMF remaining after extraction: standard 2.723 g/L; for Furfural remaining after extraction: standard 2.956 g/L; for TRS (total reducing sugar) after extraction: standard 52.00 g/L; for Inhibitor extraction, phase separation by centrifugal force / Inhibitor extraction, phase separation by separating funnel: solvent bis-(2-ethylhexyl) sebacate
From the text: Media composition was designed according to the inhibitory compound limit concentration reported in the literature for bio-butanol producing solventogenic Clostridia (Baral et al. Microbial inhibitors: formation and effects on acetone-butanol-ethanol fermentation of lignocellulosic biomass. Applied microbiology and biotechnology, Vol. 98(22), 2014: 9151-9172; Qureshi et al. Production of butanol (a biofuel) from agricultural residues: Part I—Use of barley straw hydrolysate. Biomass and bioenergy, Vol. 34(4), 2010: 559-565). Different volume ratio of the hydrolysate mimic and organic solvents, such as (5:1), (3:1), (2:1), (1:1) and (1:2) (vaqueous:vorganic) were tried in order to minimize extractant expenditure. Organic and aqueous phase mixing was carried out by a propeller impeller. Rotation rate (100, 200, 250, 300 and 400 rpm) and operation-time (15, 30, 45, 60 and 90 min) were tested at room temperature (25° C.). A comparative study between settling through separating funnel vs. centrifugal force assisted separation was also made to guarantee an optimal recovery of the broth phase.
A complex mixture of several reduced sugar compounds (e.g. as glucose, fructose, and xylose) and microbial inhibitors (furfural, HMF, acetic acid, levulinic acid, vanillin, vanillic acid, feluric acid and syringaldehyde) were produced during the pretreatment step (hydrolysis). In order to analyse these compounds, liquid samples were collected and analyzed using liquid chromatography-mass spectrometry (LC-MS) and liquid chromatography-tandem mass spectrometry (LC/MS-MS) equipped with a ZORBAX Carbohydrate column (5 μm, 150×4.6 mm ID column) (Agilent Technologies, USA) with D6 glucose as the internal standard and a Biobasic-18 column (5 μm, 250×4.6 mm ID) (Agilent Technologies, USA) with phenylethanol-D5 as the internal standard. […] Methanol water (8:2) and acetonitrile water (8.5:1.5) were used to dilute the sample before inhibitor and carbohydrate analysis. […]

[2] = tested on: Clostridium beijerinckii NRRL B-466 (CB); experiment: Bio-compatibility (solvent toxicity) batch ABE fermentation, CB
Protocol: (§1) Clostridium acetobutylicum NRRL B-582 (ATCC-824) (CA) and Clostridium beijerinckii NRRL B-466(CB) were considered for current investigation to produce bio-butanol from different brewery industry wastes. They were kindly provided by Agricultural Research Station, USDA (USA). The microorganisms were grown and maintained in peptone-yeast extract-glucose (PYG) media under anaerobic condition (vegetative growth) at 37±1° C. and 150 rpm for 24 h and 17 h, respectively, before being transferred into the fermentation medium. The medium (g L^−1) comprised: glucose (10); yeast extract (10); peptone (5); tryptone (5); cysteine-HCl (0.5); K2HPO4 (2.04); KH2PO4 (0.04); FeSO4*7H2O (1.1×10^−3); CaCl2 (8×10^−3); MgSO4*7H2O (0.0192); NaCl (0.08); and NaHCO3 (0.4). 125 mL serum bottles (working volume 50 mL) were used for both butanol production and inoculum development (Maiti et al., January 2016, Maiti et al., August 2015). Anaerobic conditions were maintained within the bottle by sparging N2 for 10 minutes and immediately sealed by an aluminum crimp seal containing silicone septum (Fisher scientific, Canada) by means of a hand operated crimper (E-Z Crimper™, VWR, Ontario, Canada). Prior to culture development, the medium was sterilized for 20 min at 121±1° C. About 10% (v/v) (dry cell weight […]) of microbial culture in its exponential phase of growth (OD600nm=1.3-1.5) was used as inoculum for all the experiments conducted in this investigation.
(§2) Set-1, set-4 and set-5 were included as control-1, control-2 and control-3 respectively. All the experiments were carried out in P2 nutrient media as described later in batch fermentation section.
(§3) Batch fermentation was performed in 125 mL serum vials (working volume of 50 mL) at pH 6.7±0.1. The P2 medium was sterilized at 121±1° C. for 20 min. Prior to fermentation, anaerobic conditions for each bottle were maintained by sparging the medium with N2 for 10 minutes and immediately closing with an aluminum crimp seal containing silicon septum (Fisher scientific, Canada) by means of a hand-operated crimper (E-Z Crimper™, VWR, Ontario, Canada). A modified P2 medium, with the following composition, was used for fermentation experiments: Buffer→KH2PO450 g/L, K2HPO450 g/L, ammonium acetate 220 g/L; Minerals→MgSO4*7H2O 20 g/L, MnSO4*H2O 1 g/L, FeSO4*7H2O 1 g/L, NaCl 1 g/L; Vitamins→thiamin 0.1 g/L, biotin 0.001 g/L). Since brewery industry wastes were already enriched with yeast protein, no additional yeast protein nor peptone were supplemented.
(§4) The fermentation was initiated by inoculating the P2 medium with the seed cultures at a ratio of 10% (v:v). […] Fermentation experiments were performed at 37±1° C. with shaking at 150 rpm for 72 h in duplicates. 1 mL of culture broth from each batch assay was used for metabolite analysis. Data described here present average values from duplicate runs for duplicate samples.
(§5) To determine the different metabolites produced during ABE fermentation (i.e. butanol, ethanol, acetone, butyric acid, and acetic acid) liquid samples from each fermentation broth were collected and analyzed using gas chromatography (GC) (GC7890B, Agilent Technologies, USA) equipped with a FID detector and a HP-INNOWax™ column (30 m, 0.25 mm ID, 0.25 μm df). Isobutanol was used as the internal standard. Before injecting the sample (1 mL) in the GC for products analysis, the sample was centrifuged for 5 minutes at 7650×g and the supernatant was filtered by 0.45 μm syringe filter. The GC conditions comprised: helium carrier gas at a flow rate of 1 mL/min with a temperature ramp from the initial temperature of 50° C. to 150° C.

[3] = tested on: Clostridium acetobutylicum NRRL B-582 (ATCC-824) (CA); experiment: Bio-compatibility (solvent toxicity) batch ABE fermentation, CA; conditions: CA
Protocol: as §1, §2, §3, §4, §5

[4] = Extraction 1, Vaqueous:Vorganic = 2:1, hydrolysate mimic
[5] = Extraction 1, Vaqueous:Vorganic = 2:1, hydrolysate mimic, standard 565.9 mg/L
[6] = Extraction 2, Vaqueous:Vorganic = 2:1, hydrolysate mimic
[7] = Extraction 3, Vaqueous:Vorganic = 2:1, hydrolysate mimic
[8] = Extraction 4, Vaqueous:Vorganic = 2:1, hydrolysate mimic
[9] = first stage, ratio 2:1, hydrolysate mimic
[10] = (5-15%) solvent supplemented to 52 g/L glucose
[11] = Control-1 (52 g/L glucose) + (5-15)% solvent, 72 h, P2 medium
[12] = homogenizer rotational speed 100 rpm
[13] = homogenizer rotational speed 200 rpm
[14] = homogenizer rotational speed 250 rpm
[15] = homogenizer rotational speed 300 rpm
[16] = homogenizer rotational speed 400 rpm

CCCCCCCCCC(C)=O [2-undecanone]
Ferulic acid removal [1, 4]: 99% | Furfural removal [1, 4]: 87% | HMF removal [1, 4]: 90% | Syringaldehyde removal [1, 4]: 97% | TRS removal [1, 4]: 0% | Vanillic acid removal [1, 4]: 95% | Vanillin removal [1, 4]: 98% | Syringaldehyde remaining after extraction ([1]; Extraction 1, Vaqueous:Vorganic = 2:1, hydrolysate mimic, standard 300.2 mg/L): 7.6 mg/L | Ferulic acid remaining after extraction ([1]; Extraction 1, Vaqueous:Vorganic = 2:1, hydrolysate mimic, standard 485.6 mg/L): 0.7 mg/L | Vanillic acid remaining after extraction [1, 5]: 9.8 mg/L | Vanillin remaining after extraction [1, 5]: 10.3 mg/L | HMF remaining after extraction [1, 4]: 0.267 g/L | Furfural remaining after extraction [1, 4]: 0.392 g/L | TRS (total reducing sugar) after extraction [1, 4]: 52.00 g/L | Ferulic acid removal [1, 6]: 100% | Furfural removal [1, 6]: 97% | HMF removal [1, 6]: 97% | Syringaldehyde removal [1, 6]: 100% | TRS removal [1, 6]: 0% | Vanillic acid removal [1, 6]: 100% | Vanillin removal [1, 6]: 100% | HMF remaining after extraction [1, 6]: 0.077 g/L | Furfural remaining after extraction [1, 6]: 0.082 g/L | TRS (total reducing sugar) after extraction [1, 6]: 52.00 g/L | Ferulic acid removal [1, 7]: 100% | Furfural removal [1, 7]: 100% | HMF removal [1, 7]: 100% | Syringaldehyde removal [1, 7]: 100% | TRS removal [1, 7]: 0% | Vanillic acid removal [1, 7]: 100% | Vanillin removal [1, 7]: 100% | TRS (total reducing sugar) after extraction [1, 7]: 52.00 g/L | Ferulic acid removal [1, 8]: 100% | Furfural removal [1, 8]: 100% | HMF removal [1, 8]: 100% | Syringaldehyde removal [1, 8]: 100% | TRS removal [1, 8]: 0% | Vanillic acid removal [1, 8]: 100% | Vanillin removal [1, 8]: 100% | TRS (total reducing sugar) after extraction [1, 8]: 52.00 g/L | Extraction efficiency for phenolic compounds [1, 9]: higher than 95% | Extraction efficiency towards furan derivatives [1, 9]: 87-90% | Reduction of bio-butanol generation in comparison with set-1 [2, 10]: 67% | ABE [2, 11]: 4.28 ± 0.4 g/L | Butanol [2, 11]: 3.11 ± 0.3 g/L | Reduction of bio-butanol generation in comparison with set-1 [3, 10]: 70% | ABE [3, 11]: 3.82 ± 0.2 g/L | Butanol [3, 11]: 2.77 ± 0.12 g/L

O=Cc1ccco1 [Furfural, furfural]
Inhibitor extraction, phase separation by centrifugal force [1, 12]: 68% | Inhibitor extraction, phase separation by separating funnel [1, 12]: 65% | Inhibitor extraction, phase separation by centrifugal force [1, 13]: 69% | Inhibitor extraction, phase separation by separating funnel [1, 13]: 68% | Inhibitor extraction, phase separation by centrifugal force [1, 14]: 78% | Inhibitor extraction, phase separation by separating funnel [1, 14]: 75% | Inhibitor extraction, phase separation by centrifugal force [1, 15]: 78% | Inhibitor extraction, phase separation by separating funnel [1, 15]: 76% | Inhibitor extraction, phase separation by centrifugal force [1, 16]: 80% | Inhibitor extraction, phase separation by separating funnel [1, 16]: 78%

O=Cc1ccc(CO)o1 [HMF, hydroxymethyl furfural]
Inhibitor extraction, phase separation by centrifugal force [1, 12]: 71% | Inhibitor extraction, phase separation by separating funnel [1, 12]: 71% | Inhibitor extraction, phase separation by centrifugal force [1, 13]: 74% | Inhibitor extraction, phase separation by separating funnel [1, 13]: 73% | Inhibitor extraction, phase separation by centrifugal force [1, 14]: 79% | Inhibitor extraction, phase separation by separating funnel [1, 14]: 78% | Inhibitor extraction, phase separation by centrifugal force [1, 15]: 82% | Inhibitor extraction, phase separation by separating funnel [1, 15]: 80% | Inhibitor extraction, phase separation by centrifugal force [1, 16]: 84% | Inhibitor extraction, phase separation by separating funnel [1, 16]: 80%

COc1cc(C=O)ccc1O [Vanillin, vanillin]
Inhibitor extraction, phase separation by centrifugal force [1, 12]: 95% | Inhibitor extraction, phase separation by separating funnel [1, 12]: 93% | Inhibitor extraction, phase separation by centrifugal force [1, 13]: 95% | Inhibitor extraction, phase separation by separating funnel [1, 13]: 93% | Inhibitor extraction, phase separation by centrifugal force [1, 14]: 97% | Inhibitor extraction, phase separation by separating funnel [1, 14]: 95% | Inhibitor extraction, phase separation by centrifugal force [1, 15]: 97% | Inhibitor extraction, phase separation by separating funnel [1, 15]: 97% | Inhibitor extraction, phase separation by centrifugal force [1, 16]: 96% | Inhibitor extraction, phase separation by separating funnel [1, 16]: 97%
